Test system: α7 integrin promoter
Assay: muscle cell-based assay: α7βgal+/− myoblasts/myotubes, LacZ reporter, β-galactosidase cleavage of FDG
Set-up: species or system mouse
Conditions: Myotubes; for Results in a α7+/− β-galactosidase assay, Myotubes, 0.5 uM: compound at 0.5 uM; for Results in a α7+/− β-galactosidase assay, Myotubes, 1 uM: compound at 1 uM; for Results in a α7+/− β-galactosidase assay, Myotubes, 5 uM: compound at 5 uM; for Results in a α7+/− β-galactosidase assay, Myotubes, 10 uM: compound at 10 uM; for Results in a α7+/− β-galactosidase assay, Myotubes, 20 uM: compound at 20 uM; for Results in a α7+/− β-galactosidase assay, Myotubes, 40 uM: compound at 40 uM
How it was run: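 Primary α7βgal+/− mouse myoblasts (LacZ knocked into α7 integrin exon 1, promoter retained), differentiated; promoter activity read as β-galactosidase conversion of non-fluorescent FDG to fluorescein. Hits followed by dose-response, western analysis and myostatin counterscreen.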

Oc1nc2ccccc2nc1-c1c[nH]c2ccccc12 [drawing 417]
Results in a α7+/− β-galactosidase assay, Myotubes, 0.5 uM: −0.06072
Results in a α7+/− β-galactosidase assay, Myotubes, 1 uM: −0.2204
Results in a α7+/− β-galactosidase assay, Myotubes, 5 uM: −0.08742
Results in a α7+/− β-galactosidase assay, Myotubes, 10 uM: 0.05064
Results in a α7+/− β-galactosidase assay, Myotubes, 20 uM: −0.4132
Results in a α7+/− β-galactosidase assay, Myotubes, 40 uM: −0.2613

O=C(Nc1cc(-c2nc3ccccc3s2)ccc1Cl)c1ccc2c(c1)OCO2 [drawing 418]
Results in a α7+/− β-galactosidase assay, Myotubes, 0.5 uM: 0.01013
Results in a α7+/− β-galactosidase assay, Myotubes, 1 uM: −0.09877
Results in a α7+/− β-galactosidase assay, Myotubes, 5 uM: 0.05089
Results in a α7+/− β-galactosidase assay, Myotubes, 10 uM: 0.3348
Results in a α7+/− β-galactosidase assay, Myotubes, 20 uM: −0.3294
Results in a α7+/− β-galactosidase assay, Myotubes, 40 uM: −0.3941

Cn1c(-c2ccccc2)cc2ccccc21 [drawing 419]
Results in a α7+/− β-galactosidase assay, Myotubes, 0.5 uM: −0.1946
Results in a α7+/− β-galactosidase assay, Myotubes, 1 uM: −0.1516
Results in a α7+/− β-galactosidase assay, Myotubes, 5 uM: 0.03646
Results in a α7+/− β-galactosidase assay, Myotubes, 10 uM: 0.2623
Results in a α7+/− β-galactosidase assay, Myotubes, 20 uM: −0.2495
Results in a α7+/− β-galactosidase assay, Myotubes, 40 uM: −0.1512

COc1ccc(C(=O)/C=C2\C(=O)Nc3ccccc32)cc1OC [drawing 420]
Results in a α7+/− β-galactosidase assay, Myotubes, 0.5 uM: −0.03323
Results in a α7+/− β-galactosidase assay, Myotubes, 1 uM: −0.07984
Results in a α7+/− β-galactosidase assay, Myotubes, 5 uM: 0.02829
Results in a α7+/− β-galactosidase assay, Myotubes, 10 uM: 0.263
Results in a α7+/− β-galactosidase assay, Myotubes, 20 uM: −0.3062
Results in a α7+/− β-galactosidase assay, Myotubes, 40 uM: −0.184

CC(C(=O)Nc1ccc(C#N)cc1)N(C)CC(=O)Nc1cccc(F)c1 (stereo not drawn) [drawing 421]
Results in a α7+/− β-galactosidase assay, Myotubes, 0.5 uM: 0.03075
Results in a α7+/− β-galactosidase assay, Myotubes, 1 uM: −0.03964
Results in a α7+/− β-galactosidase assay, Myotubes, 5 uM: −0.1345
Results in a α7+/− β-galactosidase assay, Myotubes, 10 uM: 0.2992
Results in a α7+/− β-galactosidase assay, Myotubes, 20 uM: −0.138
Results in a α7+/− β-galactosidase assay, Myotubes, 40 uM: 0.2085

CC(C(=O)Nc1ccc(C#N)cc1)N(C)CC(=O)Nc1cccc(F)c1 (stereo not drawn) [drawing 422]
Results in a α7+/− β-galactosidase assay, Myotubes, 0.5 uM: −0.07067
Results in a α7+/− β-galactosidase assay, Myotubes, 1 uM: −0.1638
Results in a α7+/− β-galactosidase assay, Myotubes, 5 uM: 0.1526
Results in a α7+/− β-galactosidase assay, Myotubes, 10 uM: 0.4825
Results in a α7+/− β-galactosidase assay, Myotubes, 20 uM: −0.1663
Results in a α7+/− β-galactosidase assay, Myotubes, 40 uM: 0.2317

CC1Cc2ccccc2N1C(=O)CSc1nnc(N)s1 (stereo not drawn) [drawing 423]
Results in a α7+/− β-galactosidase assay, Myotubes, 0.5 uM: −0.03474
Results in a α7+/− β-galactosidase assay, Myotubes, 1 uM: −0.1188
Results in a α7+/− β-galactosidase assay, Myotubes, 5 uM: −0.01338
Results in a α7+/− β-galactosidase assay, Myotubes, 10 uM: 0.3723
Results in a α7+/− β-galactosidase assay, Myotubes, 20 uM: −0.1603
Results in a α7+/− β-galactosidase assay, Myotubes, 40 uM: 0.2399

CC(C)(C)NC(=O)NC(=O)CN1CCN(Cc2ccccc2)CC1 [drawing 424]
Results in a α7+/− β-galactosidase assay, Myotubes, 0.5 uM: 0.003071
Results in a α7+/− β-galactosidase assay, Myotubes, 1 uM: −0.04272
Results in a α7+/− β-galactosidase assay, Myotubes, 5 uM: 0.04658
Results in a α7+/− β-galactosidase assay, Myotubes, 10 uM: 0.4408
Results in a α7+/− β-galactosidase assay, Myotubes, 20 uM: −0.2165
Results in a α7+/− β-galactosidase assay, Myotubes, 40 uM: 0.07828

COc1cc(C=O)ccc1OCC(=O)Nc1ccc2c(c1)OCO2 [drawing 425]
Results in a α7+/− β-galactosidase assay, Myotubes, 0.5 uM: −0.1155
Results in a α7+/− β-galactosidase assay, Myotubes, 1 uM: −0.1633
Results in a α7+/− β-galactosidase assay, Myotubes, 5 uM: 0.1998
Results in a α7+/− β-galactosidase assay, Myotubes, 10 uM: 0.4511
Results in a α7+/− β-galactosidase assay, Myotubes, 20 uM: −0.2886
Results in a α7+/− β-galactosidase assay, Myotubes, 40 uM: 0.003215

Cc1ccccc1NC(=O)c1ccc2c(O)c(Sc3ccccc3)c(=O)[nH]c2c1 [drawing 426]
Results in a α7+/− β-galactosidase assay, Myotubes, 0.5 uM: −0.06746
Results in a α7+/− β-galactosidase assay, Myotubes, 1 uM: −0.07688
Results in a α7+/− β-galactosidase assay, Myotubes, 5 uM: −0.09733
Results in a α7+/− β-galactosidase assay, Myotubes, 10 uM: 0.01498
Results in a α7+/− β-galactosidase assay, Myotubes, 20 uM: −0.07909
Results in a α7+/− β-galactosidase assay, Myotubes, 40 uM: −0.1428

Oc1nc(SCc2ccc(Cl)cc2)nc2ccsc12 [drawing 427]
Results in a α7+/− β-galactosidase assay, Myotubes, 0.5 uM: 0.03102
Results in a α7+/− β-galactosidase assay, Myotubes, 1 uM: −0.01338
Results in a α7+/− β-galactosidase assay, Myotubes, 5 uM: −0.1454
Results in a α7+/− β-galactosidase assay, Myotubes, 10 uM: 0.05532
Results in a α7+/− β-galactosidase assay, Myotubes, 20 uM: −0.03447
Results in a α7+/− β-galactosidase assay, Myotubes, 40 uM: −0.1688

CCn1c(=O)c2cc(C(=O)N(C)c3cc(C)ccc3OC)sc2c2ccccc21 [drawing 428]
Results in a α7+/− β-galactosidase assay, Myotubes, 0.5 uM: −0.1274
Results in a α7+/− β-galactosidase assay, Myotubes, 1 uM: −0.01854
Results in a α7+/− β-galactosidase assay, Myotubes, 5 uM: −0.1965
Results in a α7+/− β-galactosidase assay, Myotubes, 10 uM: −0.1001
Results in a α7+/− β-galactosidase assay, Myotubes, 20 uM: −0.31
Results in a α7+/− β-galactosidase assay, Myotubes, 40 uM: −0.8047

CCOC(=O)C1=C(NC(=O)c2ccc(OC)c(S(=O)(=O)N3CCCCC3C)c2)Nc2ccccc2N=C1CC (stereo not drawn) [drawing 429]
Results in a α7+/− β-galactosidase assay, Myotubes, 0.5 uM: −0.08852
Results in a α7+/− β-galactosidase assay, Myotubes, 1 uM: 0.05126
Results in a α7+/− β-galactosidase assay, Myotubes, 5 uM: −0.2482
Results in a α7+/− β-galactosidase assay, Myotubes, 10 uM: −0.1853
Results in a α7+/− β-galactosidase assay, Myotubes, 20 uM: −0.1051
Results in a α7+/− β-galactosidase assay, Myotubes, 40 uM: −0.1944

O=C(NCc1ccccc1)C(c1c(F)cccc1Cl)N(C(=O)c1csnn1)C1CC1 (stereo not drawn) [drawing 430]
Results in a α7+/− β-galactosidase assay, Myotubes, 0.5 uM: 0.2226
Results in a α7+/− β-galactosidase assay, Myotubes, 1 uM: −0.02073
Results in a α7+/− β-galactosidase assay, Myotubes, 5 uM: −0.2107
Results in a α7+/− β-galactosidase assay, Myotubes, 10 uM: −0.07084
Results in a α7+/− β-galactosidase assay, Myotubes, 20 uM: −0.182
Results in a α7+/− β-galactosidase assay, Myotubes, 40 uM: −0.2594

Cc1[nH]c2ccc(F)cc2c1CCN(Cc1ccco1)/C(S)=N/C(C)(C)C [drawing 431]
Results in a α7+/− β-galactosidase assay, Myotubes, 0.5 uM: −0.02866
Results in a α7+/− β-galactosidase assay, Myotubes, 1 uM: −0.1703
Results in a α7+/− β-galactosidase assay, Myotubes, 5 uM: −0.1851
Results in a α7+/− β-galactosidase assay, Myotubes, 10 uM: −0.06955
Results in a α7+/− β-galactosidase assay, Myotubes, 20 uM: −0.543
Results in a α7+/− β-galactosidase assay, Myotubes, 40 uM: −0.807

c1ccc(-c2cc(-c3nc4ccccc4[nH]3)c3ccccc3n2)cc1 [drawing 432]
Results in a α7+/− β-galactosidase assay, Myotubes, 0.5 uM: −0.06598
Results in a α7+/− β-galactosidase assay, Myotubes, 1 uM: −0.05419
Results in a α7+/− β-galactosidase assay, Myotubes, 5 uM: −0.2722
Results in a α7+/− β-galactosidase assay, Myotubes, 10 uM: −0.06437
Results in a α7+/− β-galactosidase assay, Myotubes, 20 uM: −0.3184
Results in a α7+/− β-galactosidase assay, Myotubes, 40 uM: −0.5085

CCC(C)n1nc(O)cc1N (stereo not drawn) [drawing 433]
Results in a α7+/− β-galactosidase assay, Myotubes, 0.5 uM: 0.1351
Results in a α7+/− β-galactosidase assay, Myotubes, 1 uM: −0.05991
Results in a α7+/− β-galactosidase assay, Myotubes, 5 uM: −0.1063
Results in a α7+/− β-galactosidase assay, Myotubes, 10 uM: −0.1016
Results in a α7+/− β-galactosidase assay, Myotubes, 20 uM: −0.1631
Results in a α7+/− β-galactosidase assay, Myotubes, 40 uM: −0.144

Cc1ccc(C(=O)N2CCN(S(=O)(=O)N3CCOCC3)CC2)cc1 [drawing 434]
Results in a α7+/− β-galactosidase assay, Myotubes, 0.5 uM: −0.01141
Results in a α7+/− β-galactosidase assay, Myotubes, 1 uM: −0.169
Results in a α7+/− β-galactosidase assay, Myotubes, 5 uM: 0.007084
Results in a α7+/− β-galactosidase assay, Myotubes, 10 uM: 0.1108
Results in a α7+/− β-galactosidase assay, Myotubes, 20 uM: −0.2209
Results in a α7+/− β-galactosidase assay, Myotubes, 40 uM: 0.1179

Cc1cccc(NC(=O)CN(C)C(=O)c2ccc(-c3ccc(Cl)cc3)o2)c1 [drawing 435]
Results in a α7+/− β-galactosidase assay, Myotubes, 0.5 uM: −0.06415
Results in a α7+/− β-galactosidase assay, Myotubes, 1 uM: −0.0743
Results in a α7+/− β-galactosidase assay, Myotubes, 5 uM: −0.09532
Results in a α7+/− β-galactosidase assay, Myotubes, 10 uM: −0.1682
Results in a α7+/− β-galactosidase assay, Myotubes, 20 uM: −0.3693
Results in a α7+/− β-galactosidase assay, Myotubes, 40 uM: −0.5402

Cc1ccccc1S(=O)(=O)N1C[C@H]2CON(C)[C@H]2C[C@H]1c1cccc(-c2ccccc2)c1 [drawing 436]
Results in a α7+/− β-galactosidase assay, Myotubes, 0.5 uM: 0.01204
Results in a α7+/− β-galactosidase assay, Myotubes, 1 uM: 0.03174
Results in a α7+/− β-galactosidase assay, Myotubes, 5 uM: −0.2012
Results in a α7+/− β-galactosidase assay, Myotubes, 10 uM: −0.2418
Results in a α7+/− β-galactosidase assay, Myotubes, 20 uM: −0.3306
Results in a α7+/− β-galactosidase assay, Myotubes, 40 uM: −0.5892
